Assay results reported in patent publication US8637550B2, “Heteroaryl diamide compounds useful as MMP-13 inhibitors” (Boehringer Ingelheim International GmbH, priority 2008, dated 2014).

Biological target: MMP-13 (Homo sapiens, UniProt P45452)
Assay: EnzoLyte 520 Generic MMP Assay Kit, 5-FAM/QXL520 FRET peptide substrate
Format: biochemical
Source text: The EnzoLyte™ 520 Generic MMP Assay Kit (AnaSpec Inc.) can detect the activity of several MMPs including MMP-1, 2, 3, 7, 8, 9, 13, and 14. This kit uses a 5-FAM/QXL™520 fluorescence resonance energy transfer (FRET) peptide as an MMP substrate.

IC50: 355 nM
SMILES: COCC(C)NC(=O)[C@@H](NC(=O)c1ccc(-c2ccc(NC(=O)c3cc4ccccc4o3)cc2)o1)C1CCCCC1 (stereo partly drawn) [N-{4-[5-({(1S)-1-cyclohexyl-2-[(1-methoxypropan-2-yl)amino]-2-oxoethyl}carbamoyl)furan-2-yl]phenyl}-1-benzofuran-2-carboxamide]
